According to patent publication US9150495B2, “Polyamine transporter selective compounds as anti cancer agents” (University of Central Florida Research Foundation, Inc., priority 2007, dated 2015):
Where a name gives a salt, the structure may show the parent alone.

Columns and labels:
[1] = target: Topoisomerase IIalpha (Topo IIa) (Homo sapiens, UniProt P11388); assay: Topo II kDNA decatenation assay (agarose gel); assay type: biochemical
Experimental: Thus the linear polyamine-anthracene conjugates herein disclosed (e.g., compound 4) were evaluated as Topo II inhibitors. A well established in vitro Topo II assay (as used previously) allowed us to determine whether these new conjugates (previously described compound A and novel compound 4 of the present invention) have the ability to inhibit Topo II by preventing Topo IIa from decatenating (i.e., disentangling) kinetoplast DNA (kDNA).
A negative image of agarose gel electrophoresis is visualized under UV light. Drugs were incubated with kDNA (200 ng) and Topo IIa (4 units) in reaction buffer prior to loading onto the gel. Neg. Control (−): kDNA only; Pos. Control (+): kDNA+Topo II (without conjugate); Inhibitory Control (B, rightmost lane): Berenil (50 μM). All other lanes contain the corresponding conjugate at the listed μM concentrations. Positive Topo II activity is shown by the formation of nicked open circular (NOC) DNA (middle band) and covalently closed circular (CCC) DNA (bottom band). Inhibition is shown by the negative activity of Topo II where kDNA (top band) is not decatenated and remains in the well.
When kDNA was not incubated with drug and Topo II (negative control), no migration occurred on the gel and the kDNA remained in the well as expected, which was indicated by the single top band visualized in the well. When kDNA was incubated with Topo II in the absence of drug, the top band in the well disappeared completely while two bands representing the two decatenated products could be seen.

[2] = system: CHO-MG cells; assay: CHO-MG cytotoxicity (PAT-deficient mutant cells); assay type: cell-based, Chinese hamster; conditions: Cricetulus griseus, no PAT activity, read-out: CHOMG IC50
Experimental: Chinese hamster ovary cells which are chemically mutated to be polyamine transport-deficient will be referred to as the CHO-MG cell line. […] The PAT targeting selectivity was determined using a Chinese hamster cell assay. The CHO wild type cells have active polyamine transport activity and therefore should be very susceptible to the polyamine conjugate and give low IC50 values. […] The lower the value the more cytotoxic the drug is to that cell type. In contrast, the mutant CHO-MG cells, which have no PAT activity are not as sensitive to the polyamine conjugate (which is unable to enter these cells via the defective PAT) and give higher IC50 values. We express these as a ratio of the IC50 value in CHOMG/IC50 value in CHO. The higher the ratio the more PAT selective is the polyamine conjugate drug. […] Cytotoxicity experiments were also performed in murine leukemia cells (L1210, Table 3) with and without the presence of difluoromethylornithine (DFMO), a known inhibitor of ornithine decarboxylase (the enzyme responsible for polyamine biosynthesis). Typically, when one blocks the ability of cells to synthesize polyamines, the cells respond by increasing their import of extracellular polyamines via PAT. Therefore, if our drugs are PAT-selective we should see a lowering of their respective IC50 values in the presence of DFMO, a molecule which facilitates the drug's import. […] Ki values indicate the binding affinity of the compounds for the PAT. Using competition experiments with radiolabeled spermidine, we were able to rank the binding affinity of the compounds for the PAT. Low Ki values mean the compound has a high binding affinity for the PAT.

[3] = target: polyamine transporter (PAT); assay: PAT binding affinity, competition with radiolabeled spermidine in L1210; parameters: species or system mouse; conditions: L1210 cells
Experimental: “Ki value” reflects the affinity of the drug architecture for the polyamine transporter. The lower the value of the Ki, the higher the affinity of the drug for the polyamine transporter.
(§1) Cytotoxicity experiments were also performed in murine leukemia cells (L1210, Table 3) with and without the presence of difluoromethylornithine (DFMO), a known inhibitor of ornithine decarboxylase (the enzyme responsible for polyamine biosynthesis). Typically, when one blocks the ability of cells to synthesize polyamines, the cells respond by increasing their import of extracellular polyamines via PAT. Therefore, if our drugs are PAT-selective we should see a lowering of their respective IC50 values in the presence of DFMO, a molecule which facilitates the drug's import. […] Ki values indicate the binding affinity of the compounds for the PAT. Using competition experiments with radiolabeled spermidine, we were able to rank the binding affinity of the compounds for the PAT. Low Ki values mean the compound has a high binding affinity for the PAT.

[4] = system: L1210 cells; assay: L1210 cytotoxicity; assay type: cell-based; conditions: Mus musculus, without DFMO
Experimental: (§2) L1210 cells are mouse leukemia cells and are a standard well used benchmark for evaluating cytotoxicity of new drug systems, especially polyamine containing drugs.
as §1

[5] = system: L1210 cells; assay: L1210 cytotoxicity in presence of DFMO; assay type: cell-based, mouse; conditions: in the presence of DFMO
Experimental: as §2, §1

[6] = system: CHO cells; assay: CHO wild type cytotoxicity (active polyamine transport); assay type: cell-based, Chinese hamster; conditions: for IC50: Cricetulus griseus, CHO wild type cells, active PAT; for CHOMG/CHO IC50 Ratio: IC50 in CHOMG / IC50 in CHO, PAT selectivity
Experimental: Chinese hamster ovary cells (CHO cells) have an active polyamine transporter. This cell type is very susceptible to drugs which use the polyamine transporter system to gain access to cells (i.e. polyamine conjugates). The PAT targeting selectivity was determined using a Chinese hamster cell assay. The CHO wild type cells have active polyamine transport activity and therefore should be very susceptible to the polyamine conjugate and give low IC50 values. […] The lower the value the more cytotoxic the drug is to that cell type. In contrast, the mutant CHO-MG cells, which have no PAT activity are not as sensitive to the polyamine conjugate (which is unable to enter these cells via the defective PAT) and give higher IC50 values. We express these as a ratio of the IC50 value in CHOMG/IC50 value in CHO. The higher the ratio the more PAT selective is the polyamine conjugate drug. […] Cytotoxicity experiments were also performed in murine leukemia cells (L1210, Table 3) with and without the presence of difluoromethylornithine (DFMO), a known inhibitor of ornithine decarboxylase (the enzyme responsible for polyamine biosynthesis). Typically, when one blocks the ability of cells to synthesize polyamines, the cells respond by increasing their import of extracellular polyamines via PAT. Therefore, if our drugs are PAT-selective we should see a lowering of their respective IC50 values in the presence of DFMO, a molecule which facilitates the drug's import. […] Ki values indicate the binding affinity of the compounds for the PAT. Using competition experiments with radiolabeled spermidine, we were able to rank the binding affinity of the compounds for the PAT. Low Ki values mean the compound has a high binding affinity for the PAT.

Chain of Topoisomerase IIalpha (Topo IIa) (P11388 whole entry): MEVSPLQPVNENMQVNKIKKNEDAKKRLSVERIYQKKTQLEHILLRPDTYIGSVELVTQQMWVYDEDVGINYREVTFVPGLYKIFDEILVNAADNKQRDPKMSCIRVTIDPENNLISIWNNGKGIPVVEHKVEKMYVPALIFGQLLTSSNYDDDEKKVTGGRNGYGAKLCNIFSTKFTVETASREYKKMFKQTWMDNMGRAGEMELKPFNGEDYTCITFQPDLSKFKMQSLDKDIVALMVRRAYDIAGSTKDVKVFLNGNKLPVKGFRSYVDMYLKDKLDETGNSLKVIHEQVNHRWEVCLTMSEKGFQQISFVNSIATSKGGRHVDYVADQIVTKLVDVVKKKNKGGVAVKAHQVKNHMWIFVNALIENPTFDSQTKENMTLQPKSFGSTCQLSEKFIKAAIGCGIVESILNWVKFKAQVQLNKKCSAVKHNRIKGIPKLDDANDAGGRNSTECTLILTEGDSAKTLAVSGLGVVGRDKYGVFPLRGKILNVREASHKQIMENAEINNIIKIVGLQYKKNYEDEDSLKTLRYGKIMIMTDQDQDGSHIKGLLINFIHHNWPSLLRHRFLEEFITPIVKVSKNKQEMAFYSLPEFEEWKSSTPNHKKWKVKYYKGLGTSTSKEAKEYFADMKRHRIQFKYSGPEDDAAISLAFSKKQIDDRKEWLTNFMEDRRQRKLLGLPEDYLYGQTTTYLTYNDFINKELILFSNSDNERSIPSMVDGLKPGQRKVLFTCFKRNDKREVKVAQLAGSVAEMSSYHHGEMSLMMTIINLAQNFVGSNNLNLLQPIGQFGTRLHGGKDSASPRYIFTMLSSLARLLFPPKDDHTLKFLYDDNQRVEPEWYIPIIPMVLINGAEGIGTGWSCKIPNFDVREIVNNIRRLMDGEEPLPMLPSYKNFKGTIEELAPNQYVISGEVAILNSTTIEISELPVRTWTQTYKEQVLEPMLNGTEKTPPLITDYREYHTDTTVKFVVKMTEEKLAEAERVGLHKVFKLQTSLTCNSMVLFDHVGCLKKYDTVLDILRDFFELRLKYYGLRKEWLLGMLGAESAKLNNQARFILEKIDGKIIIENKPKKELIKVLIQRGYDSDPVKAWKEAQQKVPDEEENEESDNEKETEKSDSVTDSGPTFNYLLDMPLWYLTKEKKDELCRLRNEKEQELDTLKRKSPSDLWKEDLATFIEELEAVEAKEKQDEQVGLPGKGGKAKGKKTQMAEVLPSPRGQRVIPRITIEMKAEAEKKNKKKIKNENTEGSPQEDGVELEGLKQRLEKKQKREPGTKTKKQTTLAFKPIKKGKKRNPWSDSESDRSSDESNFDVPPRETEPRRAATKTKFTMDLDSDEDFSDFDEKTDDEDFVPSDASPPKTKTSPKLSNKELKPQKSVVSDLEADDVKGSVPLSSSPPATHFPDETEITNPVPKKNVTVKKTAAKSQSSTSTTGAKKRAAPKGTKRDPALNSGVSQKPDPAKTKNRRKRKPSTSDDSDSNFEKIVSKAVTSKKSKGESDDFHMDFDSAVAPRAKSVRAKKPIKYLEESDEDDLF

| Topo II inhibition (kDNA remaining in well) ([1]; 50 μM, inhibitory control) | Ki [3] [nM] | Topo II inhibition (kDNA remaining undecatenated) ([1]; 5 μM, kDNA 200 ng, Topo IIa 4 units) | Type of Topo II inhibition ([1]; inhibition increased with drug concentration) | Compound | IC50 [2] [nM] | IC50 [4] [nM] | IC50 ([5]; Mus musculus, L1210) [nM] | IC50 [6] [nM] | CHOMG/CHO IC50 Ratio ([6]; Hydrochloride salt) | CHOMG/CHO IC50 Ratio [6] | IC50 [5] [nM] |
| --- | --- | --- | --- | --- | --- | --- | --- | --- | --- | --- | --- |
|  | 170 ± 20 |  |  | Cl.NCCCCNCCCCNCc1ccc(CNCCCCNCCCCN)c2ccccc12 [Compound 7, N-(4-Amino-butyl)-N′-(4-{[4-(4-amino-butylamino)-butylamino]-methyl}-naphthalen-1-ylmethyl)-butane-1,4-diamine, Hydrochloride salt] | > 100000 | 250 ± 80 |  | 120 ± 30 |  | >833 |  |
|  | 520 ± 110 |  |  | Cl.NCCCCNCCCCNCc1ccc(CNCCCCNCCCCN)cc1 [Compound 10, N-(4-Amino-butyl)-N′-(4-{[4-(4-amino-butylamino)-butylamino]-methyl}-benzyl)-butane-1,4-diamine, Hydrochloride salt] | 50200 ± 3800 | 160 ± 10 | 360 ± 30 | 74 ± 10 |  | 677 |  |
|  | 490 ± 20 |  |  | NCCCCNCCCCNCc1cc(CNCCCCNCCCCN)cc(CN(CCCCN)CCCCN)c1 [Compound 15, N-(4-Amino-butyl)-N-(3,5-bis-{[4-(4-amino-butylamino)-butylamino]-methyl}-benzyl)-butane-1,4-diamine, nona-Hydrochloride Salt] | > 500000 | 122000 ± 8100 |  | > 500000 |  |  | 49300 ± 10000 |

The next lines start with the compound.

| Compound | Topo II inhibition (kDNA remaining in well) ([1]; 50 μM, inhibitory control) | Ki [3] [nM] | Topo II inhibition (kDNA remaining undecatenated) ([1]; 5 μM, kDNA 200 ng, Topo IIa 4 units) | Type of Topo II inhibition ([1]; inhibition increased with drug concentration) | IC50 [2] [nM] | IC50 [4] [nM] | IC50 ([5]; Mus musculus, L1210) [nM] | IC50 [6] [nM] | CHOMG/CHO IC50 Ratio ([6]; Hydrochloride salt) | CHOMG/CHO IC50 Ratio [6] | IC50 [5] [nM] |
| --- | --- | --- | --- | --- | --- | --- | --- | --- | --- | --- | --- |
| CC(=O)NCC(=O)O.CC(=O)NCC(=O)O.N=C(N)c1ccc(N=NNc2ccc(C(=N)N)cc2)cc1 [Berenil, reference compound] | good inhibition |  |  |  |  |  |  |  |  |  |  |
| Cl.NCCCCNCCCCNCc1c2ccccc2c(CNCCCCNCCCCN)c2ccccc12 [Compound 4, N-(4-Amino-butyl)-N′-(10-{[4-(4-amino-butylamino)-butylamino]-methyl}-anthracen-9-ylmethyl)-butane-1,4-diamine, Hydrochloride salt] |  | 390 ± 50 | good inhibition | catalytic Topo-II inhibitors | > 100000 | 780 ± 70 | 220 ± 80 | 45 ± 3 | >2222 |  |  |
